Experimental data taken from publication PMC5907308, “21st Brazilian Diabetes Society Congress” (Diabetology & Metabolic Syndrome, 2018).

Tests used:
[1] = tested on: patients with type 2 diabetes; assay: Acute NEFA lowering with acipimox: 3 h OGTT and isoglycaemic IV glucose; format: in vivo, human
Description: Both tests were repeated after ACP ingestion (200 mg 2 h before and 1 h after starting glucose). C-peptide deconvolution was used to calculate IS rates; mathematical model to quantitate ß-cell function and IE. Main parameters: insulin secretion rate (ISR); glucose sensitivity (ßGS), i.e., the slope of the IS/glucose dose–response curve; glucose-induced potentiation (PGLU), a time-dependent modulation of the dose–response; incretin-induced potentiation (PINCR) calculated as the fold IS increment during OGTT compared to IV glucose.

[2] = tested on: obese patients
Excerpt: Alpha-linolenic acid supplementation effects on endoplasmic reticulum stress in visceral adipose tissue from morbid obese patients. 2017. Tese (Doutorado)—Faculdade de Medicina de Ribeirão Preto, Universidade de São Paulo, Ribeirão Preto, 2017. Currently, obesity is considered a worldwide epidemic. It is associated with chronic inflammation and stress activation of the endoplasmic reticulum (ERE), related to the pathogenesis of various diseases such as type 2 diabetes mellitus, cardiovascular diseases, cancer, hypertension, among others. In this context, studies are needed to find alternatives that improve the inflammatory process. […] The objective of our study was to evaluate the effects of alpha-linolenic acid (ALA) supplementation on the metabolism and stress of the endoplasmic reticulum in obese patients. A prospective, randomized, placebo-controlled, double-blind study was conducted. In total, 52 patients were randomized to supplementation with 3 g/day of ALA or placebo, 27 individuals from the omega-3/ALA group and 25 from the control group. Lipid, glycidic and inflammatory profile were evaluated before and after supplementation. Visceral adipose tissue (TAV) was collected during bariatric surgery after supplementation. The fatty acid profile incorporated in the TAV was evaluated by gas chromatography. Genes were evaluated by real-time PCR.

[3] = tested on: participants with type 2 diabetes and high cardiovascular risk; assay: LEADER trial, renal outcomes; format: in vivo, human
Excerpt: Background: The effects of liraglutide, a long-acting glucagon-like peptide-1(GLP-1) analog, on renal outcomes in type 2 diabetes are unknown. We conducted a randomized, double-blind, placebo-controlled trial comparing liraglutide vs placebo, both on a background of standard of care, in participants with type 2 diabetes and high cardiovascular risk.
Renal events were key secondary outcomes. The primary renal outcome was a composite of new onset of persistent macroalbuminuria, persistent doubling of serum creatinine, end stage renal disease (ESRD), or death due to renal disease. Risk of renal outcomes was determined using intention-to-treat in time-to-event analyses; competing risk of death was taken into account. Change of eGFR and loss of eGFR by > − 30% was also analyzed.

[4] = tested on: type 2 diabetic patient; assay: Case report: liraglutide added to insulin degludec and metformin; format: in vivo, human; conditions: last evaluation
Description: patient one, type 2 diabetic for 3 years, using Gliclazide 60 mg/day and Metformin 1500 mg/day. They reported asthenia and difficulty losing weight. […] To optimize patient glycemic control and weight loss, Liraglutide 1.2 mg/day was initiated. […] The insulin dose was reduced to 10 U and reassessed in 30 days for possible discontinuation of insulin therapy. GLP- 1 receptor agonists stimulate insulin secretion in a […] manner, inhibit glucagon secretion and hepatic glucose output, delay gastric emptying, induce satiety, reduce appetite, and cause weight loss. […] It is a therapeutic option with action well established in weight loss, metabolic and glycemic improvement in the DM2 patient. However, its action on HbA1C reduction was independent of weight loss, evidencing intensive glycemic control with HbA1C between 6.5 and 7.0% even with discrete or even absent weight loss.

[5] = tested on: male Wistar rats; format: in vivo, rat
Excerpt: Background: Glucocorticoids (GCs) are a group of drugs with immunosuppressive and antiinflammatory action, its mechanism of action is related to the suppressing the release of proinflammatory cytokines. In addition, GCs may interfere with carbohydrate metabolism, by antagonizing various peripheral actions of insulin, and from this action, trigger changes in the biochemical profile, mainly regarding the lipid representation. The present study aimed to evaluate the dose–response influence of prednisone in the biochemical profile of rats. […] The treatment was daily with a duration of 21 days, with fasting glycemic measures being evaluated in the first (zero) and last day (21). Then the rats were anesthetized and killed by decapitation, in order to collect the whole blood for serum biochemical analysis by spectrophotometry. All data were statistically evaluated with significance of 5%.

[6] = tested on: patient with schizophrenia; assay: New-onset diabetes caused by atypical antipsychotic, case report; format: in vivo, human
Excerpt: Case report: A patient, previously healthy, had been diagnosed with schizophrenia and started treatment with risperidone. Due to the lack of response, the medication was switched to olanzapine. After 2 years on the new treatment, however, they experienced polyuria, polydipsia and polyphagia, with a weight gain of approximately 12 kg in a period of 2 years. They were diagnosed with new-onset diabetes mellitus and hypertriglyceridemia and was referred to our center for evaluation. They were started on metformin 500 mg/day, NPH insulin 9 units before breakfast and 7 units bedtime, and bezafibrate 200 mg/day. […] LDL was not calculated due to the hypertriglyceridemia. Insulin was titrated to achieve glycemic control and autoantibodies (antiGAD, antiICA and anti-insulin) were requested, but they were negative. A letter was addressed to the psychiatry staff regarding olanzapine’s adverse events, which was exchanged to ziprasidone. […] Insulin dosing was reduced and further withdrawn 3 months after initiation of ziprasidone. Currently, 2 months thereafter, they are on good glycemic control with metformin and alogliptin.

[7] = tested on: NGT subjects and T2D patients; assay: Hyperglycaemic clamp with somatostatin, without and with insulin infusion: renal glucose excretion; format: in vivo, human
Description: Then, a constant insulin infusion (1 mU min^−1 kg^−1) was started and maintained for additional 3 h (INS period) while clamping glycaemia at CT levels with the use of an ad hoc algorithm. Urines were collected separately for the two study periods for the measurement of glucose and creatinine.

[8] = tested on: people with T2D and CKD stages 3-4; assay: AWARD-7 phase 3 study, 26 weeks, both arms combined with insulin lispro; format: in vivo, human
[9] = tested on: subjects with type 1 diabetes; assay: onset 1, 26-week phase 3 trial, post hoc analysis by dose adjustment method; format: in vivo, human; conditions: before treatment
[10] = arms DU 1.5 mg and insulin glargine
[11] = subjects continuing carbohydrate counting (CC)
[12] = subjects using a simple bolus algorithm (BA)

## Cc1cnc(C(=O)O)c[n+]1[O-] [ACP, acipimox]
[1]; ACP 200 mg 2 h before and 1 h after starting glucose, n = 13, mean ± SD
  decrease of NEFA OGTT-area-under-curve (AUC): 55 ± 14%
[1]; after ACP, control 26 ± 9, p = ns
  glucose sensitivity (ßGS): 32 ± 11 pmol min^−1 m^−2 mM^−1
[1]; after ACP, control 58 ± 19
  insulin secretion rate (ISR), isoglycaemic IV glucose: 53 ± 15 nmol m^−2
[1]; after ACP, control 70 ± 23
  insulin secretion rate (ISR), OGTT: 64 ± 20 nmol m^−2
[1]; after ACP, control 291 ± 60
  oral glucose sensitivity index, OGIS: 326 ± 44 ml min^−1 m^−2
[1]; in vivo
  incretin-induced potentiation (PINCR): 1.17 ± 0.14 fold

## CC/C=C\C/C=C\C/C=C\CCCCCCCC(=O)O [ALA, alpha-linolenic acid]
[2]; after supplementation
  serum levels of IL-6, TNF-α and CRP: no change
[2]; after supplementation, P = 0.0154
  serum Leptin levels: decrease
[2]; after supplementation, p = 0.0211
  serum IL-4: increase
[2]; after supplementation, p = 0.0410
  serum IP-10: decrease
[2]; gas chromatography
  incorporation of ALA, EPA and DHA into visceral adipose tissue (TAV): Significant incorporation
[2]; real-time PCR
  gene expression of XBP1, sXBP1, EIF2-α, GADD34 and CCT4 chaperone in TAV: increase
  gene expression of leptin and ATF-6 in TAV: decrease

## CCCCCCCCCCCCCCCC(=O)N[C@@H](CCC(=O)NCCCC[C@H](NC(=O)[C@H](C)NC(=O)[C@H](C)NC(=O)[C@H](CCC(N)=O)NC(=O)CNC(=O)[C@H](CCC(=O)O)NC(=O)[C@H](CC(C)C)NC(=O)[C@H](Cc1ccc(O)cc1)NC(=O)[C@H](CO)NC(=O)[C@H](CO)NC(=O)[C@@H](NC(=O)[C@H](CC(=O)O)NC(=O)[C@H](CO)NC(=O)[C@@H](NC(=O)[C@H](Cc1ccccc1)NC(=O)[C@@H](NC(=O)CNC(=O)[C@H](CCC(=O)O)NC(=O)[C@H](C)NC(=O)[C@@H](N)Cc1c[nH]cn1)[C@@H](C)O)[C@@H](C)O)C(C)C)C(=O)N[C@@H](CCC(=O)O)C(=O)N[C@@H](Cc1ccccc1)C(=O)N[C@H](C(=O)N[C@@H](C)C(=O)N[C@@H](Cc1c[nH]c2ccccc12)C(=O)N[C@@H](CC(C)C)C(=O)N[C@H](C(=O)N[C@@H](CCCNC(=N)N)C(=O)NCC(=O)N[C@@H](CCCNC(=N)N)C(=O)NCC(=O)O)C(C)C)[C@@H](C)CC)C(=O)O [Liraglutide]
[3]; in vivo
  albuminuria vs placebo: increased less
  eGFR vs placebo: decreased significantly less
[3]; median follow-up 3.84 years, placebo 337 of 4672
  primary renal outcome, participants: 268 of 4668
[3]; p = 0.003
  primary renal outcome, HR vs placebo: 0.787 [0.670;0.924]
[3]; p = 0.004
  new onset of persistent macroalbuminuria, HR vs placebo: 0.74 [0.61;0.91]
[3]; placebo 215 of 4672
  new onset of persistent macroalbuminuria, participants: 161 of 4668
[4]
  HbA1c: 6.4%
[4]; […] of total weight
  total weight loss: 6 kg

## C[C@]12C=CC(=O)C=C1CC[C@@H]1[C@@H]2C(=O)C[C@@]2(C)[C@H]1CC[C@]2(O)C(=O)CO [PRED, prednisone]
[5]; 1.25 mg/kg, control 68.6 ± 24.8
  alanine aminotransferase (ALT): 79.0 ± 25.1 U/L
[5]; 5.0 mg/kg, 21 days, CONT 144.1 ± 39.6
  triglycerides: 76.0 ± 36.2 mg/dL
[5]; 5.0 mg/kg, CONT 22.8 ± 7.9
  VLDL: 15.2 ± 7.2 mg/dL
[5]; 5.0 mg/kg, CONT 53.0 ± 7.7
  HDL: 23.8 ± 4.2 mg/dL

## Cc1cc2c(s1)Nc1ccccc1N=C2N1CCN(C)CC1 [olanzapine]
[6]; After 2 years on olanzapine
  HDL: 65 mg/dL
  Total cholesterol: 570 mg/dL
  triglycerides: 3455 mg/dL
[6]; period of 2 years on olanzapine
  weight gain: approximately 12 kg

## INS: constant insulin infusion (1 mU min^−1 kg^−1)
[7]; INS period (insulin 1 mU min^−1 kg^−1, 3 h), NGT, CT period 36 ± 16
  exogenous glucose infusion rate (GIR): 157 ± 46 µmol kg MM^−1 min^−1
[7]; INS period, NGT, CT period 20 ± 5
  fractional glucose excretion (FEG): 24 ± 3%
[7]; INS period, NGT, CT period 690 [180]
  urinary glucose excretion (UGE), median [IQR]: 770 [320] µmol min^−1
[7]; INS period, T2D, CT period 17 ± 6
  fractional glucose excretion (FEG): 17 ± 7%
[7]; INS period, T2D, CT period 26 ± 12
  exogenous glucose infusion rate (GIR): 71 ± 47 µmol kg MM^−1 min^−1
[7]; INS period, T2D, CT period 490[280]
  urinary glucose excretion (UGE), median [IQR]: 530[310] µmol min^−1

## dulaglutide
[8]; arm DU 0.75 mg
  Nausea: 11.1%
  diarrhea: 13.7%
  vomiting: 5.8%
[8]; arm DU 0.75 mg once weekly
  hypoglycemia rate (≤ 70 mg/dL): 7.8 events/participant/year
[8]; [10]
  Nausea: 19.8%
  diarrhea: 15.6%
  vomiting: 12.0%
[8]; arms DU 1.5 mg once weekly and titrated daily insulin glargine
  hypoglycemia rate (≤ 70 mg/dL): 5.5 events/participant/year

## fast-acting insulin aspart [faster aspart]
[9]; [11]
  HbA1c at baseline: 7.6%
[9]; [12]
  HbA1c at baseline: 7.5%

## insulin aspart [IAsp]
[9]; [11]
  HbA1c at baseline: 7.6%
[9]; [12]
  HbA1c at baseline: 7.6%
